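The compound was tested at five concentrations on cells cultured in 96-well plates, with a 48-hour exposure period. The concentration for full growth arrest is given as TGI.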
Tests used:
Experiment in all cases: growth of human tumour cells (NCI), 48 h
HL-60(TB) leukemia = system: HL-60(TB) leukemia
PC-3 prostate = system: PC-3 prostate
UACC-62 melanoma = system: UACC-62 melanoma
HCT-116 colon = system: HCT-116 colon
HCC-2998 colon = system: HCC-2998 colon
MDA-MB-231 breast = system: MDA-MB-231 breast
K-562 leukemia = system: K-562 leukemia
EKVX NSCLC = system: EKVX NSCLC
COLO 205 colon = system: COLO 205 colon
SK-OV-3 ovarian = system: SK-OV-3 ovarian
DU-145 prostate = system: DU-145 prostate
OVCAR-8 ovarian = system: OVCAR-8 ovarian
OVCAR-5 ovarian = system: OVCAR-5 ovarian
T-47D breast = system: T-47D breast
U251 CNS = system: U251 CNS
MALME-3M melanoma = system: MALME-3M melanoma
HOP-62 NSCLC = system: HOP-62 NSCLC
ACHN renal = system: ACHN renal
CAKI-1 renal = system: CAKI-1 renal
OVCAR-3 ovarian = system: OVCAR-3 ovarian
LOX IMVI melanoma = system: LOX IMVI melanoma
HOP-92 NSCLC = system: HOP-92 NSCLC
BT-549 breast = system: BT-549 breast
MDA-MB-435 = system: MDA-MB-435
MDA-N = system: MDA-N
IGROV1 ovarian = system: IGROV1 ovarian
NCI-H522 lung = system: NCI-H522 lung
MCF7 breast = system: MCF7 breast
UACC-257 melanoma = system: UACC-257 melanoma
786-0 renal = system: 786-0 renal
OVCAR-4 ovarian = system: OVCAR-4 ovarian
RXF 393 renal = system: RXF 393 renal
SF-268 CNS = system: SF-268 CNS
KM12 colon = system: KM12 colon
SK-MEL-2 melanoma = system: SK-MEL-2 melanoma
NCI-H460 lung = system: NCI-H460 lung
NCI-H23 lung = system: NCI-H23 lung
CCRF-CEM leukemia = system: CCRF-CEM leukemia
A498 renal = system: A498 renal
SF-295 CNS = system: SF-295 CNS
SN12C renal = system: SN12C renal
HT29 colon = system: HT29 colon
M14 melanoma = system: M14 melanoma
SNB-19 CNS = system: SNB-19 CNS
HS 578T breast = system: HS 578T breast
RPMI-8226 leukemia = system: RPMI-8226 leukemia
HCT-15 colon = system: HCT-15 colon
SW-620 colon = system: SW-620 colon
NCI-H226 lung = system: NCI-H226 lung
SF-539 CNS = system: SF-539 CNS
A549 NSCLC = system: A549 NSCLC
MOLT-4 leukemia = system: MOLT-4 leukemia
SK-MEL-28 melanoma = system: SK-MEL-28 melanoma
TK-10 renal = system: TK-10 renal
NCI/ADR-RES ovarian = system: NCI/ADR-RES ovarian
UO-31 renal = system: UO-31 renal
SK-MEL-5 melanoma = system: SK-MEL-5 melanoma
SR leukemia = system: SR leukemia

COc1cccc(OC/C(N=Cc2ccncc2)=N/NC(=O)c2ccncc2)c1
TGI (HL-60(TB) leukemia): > 100 µM
TGI (PC-3 prostate): > 100 µM
TGI (UACC-62 melanoma): > 100 µM
TGI (HCT-116 colon): > 100 µM
TGI (HCC-2998 colon): > 100 µM
TGI (MDA-MB-231 breast): > 100 µM
TGI (K-562 leukemia): > 100 µM
TGI (EKVX NSCLC): > 100 µM
TGI (COLO 205 colon): > 100 µM
TGI (SK-OV-3 ovarian): > 100 µM
TGI (DU-145 prostate): > 100 µM
TGI (OVCAR-8 ovarian): > 100 µM
TGI (OVCAR-5 ovarian): > 100 µM
TGI (T-47D breast): > 100 µM
TGI (U251 CNS): > 100 µM
TGI (MALME-3M melanoma): > 100 µM
TGI (HOP-62 NSCLC): > 100 µM
TGI (ACHN renal): > 100 µM
TGI (CAKI-1 renal): > 100 µM
TGI (OVCAR-3 ovarian): > 100 µM
TGI (LOX IMVI melanoma): > 100 µM
TGI (HOP-92 NSCLC): > 100 µM
TGI (BT-549 breast): > 100 µM
TGI (MDA-MB-435): > 100 µM
TGI (MDA-N): > 100 µM
TGI (IGROV1 ovarian): > 100 µM
TGI (NCI-H522 lung): > 100 µM
TGI (MCF7 breast): > 100 µM
TGI (UACC-257 melanoma): > 100 µM
TGI (786-0 renal): > 100 µM
TGI (OVCAR-4 ovarian): > 100 µM
TGI (RXF 393 renal): > 100 µM
TGI (SF-268 CNS): > 100 µM
TGI (KM12 colon): > 100 µM
TGI (SK-MEL-2 melanoma): > 100 µM
TGI (NCI-H460 lung): > 100 µM
TGI (NCI-H23 lung): > 100 µM
TGI (CCRF-CEM leukemia): > 100 µM
TGI (A498 renal): > 100 µM
TGI (SF-295 CNS): > 100 µM
TGI (SN12C renal): > 100 µM
TGI (HT29 colon): > 100 µM
TGI (M14 melanoma): > 100 µM
TGI (SNB-19 CNS): > 100 µM
TGI (HS 578T breast): > 100 µM
TGI (RPMI-8226 leukemia): > 100 µM
TGI (HCT-15 colon): > 100 µM
TGI (SW-620 colon): > 100 µM
TGI (NCI-H226 lung): > 100 µM
TGI (SF-539 CNS): > 100 µM
TGI (A549 NSCLC): > 100 µM
TGI (MOLT-4 leukemia): > 100 µM
TGI (SK-MEL-28 melanoma): > 100 µM
TGI (TK-10 renal): > 100 µM
TGI (NCI/ADR-RES ovarian): > 100 µM

O=c1cc(C(F)(F)F)c2cc3c(cc2o1)NCCC3
TGI (HL-60(TB) leukemia): > 100 µM
TGI (PC-3 prostate): > 100 µM
TGI (HCT-116 colon): > 100 µM
TGI (HCC-2998 colon): > 100 µM
TGI (UO-31 renal): > 100 µM
TGI (MDA-MB-231 breast): > 100 µM
TGI (K-562 leukemia): > 100 µM
TGI (EKVX NSCLC): > 100 µM
TGI (COLO 205 colon): > 100 µM
TGI (DU-145 prostate): > 100 µM
TGI (OVCAR-8 ovarian): > 100 µM
TGI (OVCAR-5 ovarian): > 100 µM
TGI (T-47D breast): > 100 µM
TGI (U251 CNS): 63.4 µM
TGI (MALME-3M melanoma): > 100 µM
TGI (HOP-62 NSCLC): 42.8 µM
TGI (ACHN renal): > 100 µM
TGI (CAKI-1 renal): > 100 µM
TGI (OVCAR-3 ovarian): > 100 µM
TGI (LOX IMVI melanoma): > 100 µM
TGI (HOP-92 NSCLC): > 100 µM
TGI (BT-549 breast): > 100 µM
TGI (MDA-MB-435): > 100 µM
TGI (MDA-N): > 100 µM
TGI (IGROV1 ovarian): > 100 µM
TGI (NCI-H522 lung): > 100 µM
TGI (MCF7 breast): > 100 µM
TGI (UACC-257 melanoma): > 100 µM
TGI (786-0 renal): > 100 µM
TGI (OVCAR-4 ovarian): > 100 µM
TGI (RXF 393 renal): 0.987 µM
TGI (SF-268 CNS): > 100 µM
TGI (SK-MEL-5 melanoma): > 100 µM
TGI (SR leukemia): > 100 µM
TGI (KM12 colon): > 100 µM
TGI (SK-MEL-2 melanoma): > 100 µM
TGI (NCI-H460 lung): > 100 µM
TGI (NCI-H23 lung): > 100 µM
TGI (CCRF-CEM leukemia): > 100 µM
TGI (A498 renal): > 100 µM
TGI (SF-295 CNS): > 100 µM
TGI (SN12C renal): > 100 µM
TGI (HT29 colon): > 100 µM
TGI (M14 melanoma): > 100 µM
TGI (SNB-19 CNS): 91.7 µM
TGI (HS 578T breast): 61.9 µM
TGI (RPMI-8226 leukemia): > 100 µM
TGI (HCT-15 colon): > 100 µM
TGI (SW-620 colon): > 100 µM
TGI (NCI-H226 lung): > 100 µM
TGI (SF-539 CNS): > 100 µM
TGI (A549 NSCLC): > 100 µM
TGI (MOLT-4 leukemia): > 100 µM
TGI (SK-MEL-28 melanoma): > 100 µM
TGI (TK-10 renal): > 100 µM
TGI (NCI/ADR-RES ovarian): > 100 µM

Source: PubChem BioAssay (NCI)
